Results reported in patent KR20140041632A, “제주조릿대 잎 추출물 또는 그로부터 분리된 파라-쿠마르산을 이용한 비만 및 지방간 개선제 조성물” (제주대학교 산학협력단, priority 2014, dated 2014).
“Also recorded” adds a separate entry of the source.

How the values were obtained:
[1] = tested on: LKB1; assay: Western blot of p-LKB1 in differentiated 3T3-L1 adipocytes; format: cell-based; conditions: Fig. 12
[2] = tested on: AMPK; assay: Western blot of p-AMPK in differentiated L6 cells; format: cell-based, rat; conditions: 48 h, Fig. 13
[3] = tested on: AMPK; assay: Western blot of p-AMPK in HepG2 cells with induced fat accumulation; format: cell-based; conditions: HepG2, oleic acid 600uM, 24 h; Fig. 15
[4] = tested on: ACC; assay: Western blot of p-ACC in differentiated L6 cells; format: cell-based, rat; conditions: 48 h, Fig. 13
[5] = tested on: ACC; assay: Western blot of p-ACC in differentiated 3T3-L1 adipocytes; format: cell-based; conditions: Fig. 12
[6] = tested on: ACC; assay: Western blot of p-ACC in HepG2 cells with induced fat accumulation; format: cell-based; conditions: HepG2, oleic acid 600uM, 24 h; Fig. 15
[7] = tested on: PPARα; assay: Western blot of PPARα in differentiated L6 cells; format: cell-based, rat; conditions: 48 h, vs control, Fig. 14
[8] = tested on: AMPK; assay: Western blot of p-AMPK in differentiated 3T3-L1 adipocytes; format: cell-based; conditions: Fig. 12
[9] = tested on: 3T3-L1 preadipocytes [3T3-L1 전구지방세포]; assay: Inhibition of differentiation of 3T3-L1 preadipocytes into adipocytes (Oil Red O); format: cell-based; conditions: 3T3-L1, 100uM, treatment Day4 ~ Day8, Oil Red O 540nm; Fig. 11
[10] = several concentrations, vs control

O=C(O)/C=C/c1ccc(O)cc1 [p-쿠마르산, p-coumaric acid]
LKB1 phosphorylation [1]: 증가 and 농도 의존적으로 LKB1의 인산화, AMPK의 인산화 및 ACC의 인산화를 증가시킴 | AMPK phosphorylation at highest concentration ([2]; 50uM): 현저한 증가 | AMPK phosphorylation [2, 10]: 농도의존적으로 증가; also recorded: 농도 의존적으로 AMPK 및 ACC의 인산화를 증가시킴 | AMPK phosphorylation [3]: 농도의존적으로 증가; also recorded: 농도 의존적으로 AMPK 및 ACC의 인산화를 증가시킴 | ACC phosphorylation at highest concentration ([4]; 50uM): 현저한 증가 | ACC phosphorylation [4, 10]: 농도의존적으로 증가; also recorded: 농도 의존적으로 AMPK 및 ACC의 인산화를 증가시킴 | ACC phosphorylation [5]: 증가 and 농도 의존적으로 LKB1의 인산화, AMPK의 인산화 및 ACC의 인산화를 증가시킴 | ACC phosphorylation [6]: 농도의존적으로 증가; also recorded: 농도 의존적으로 AMPK 및 ACC의 인산화를 증가시킴 | PPARα expression [7]: 증가 and 농도 의존적으로 PPARα 발현을 증가시킴 | AMPK phosphorylation [8]: 증가 and 농도 의존적으로 LKB1의 인산화, AMPK의 인산화 및 ACC의 인산화를 증가시킴 | TG content / triglyceride accumulation [9]: 유의적으로 감소; also recorded: 중성지방의 축적을 억제
